Measured values from patent US9567318B2, “Substituted pyrimidine compounds and uses thereof” (Memorial Sloan-Kettering Cancer Center, priority 2009, dated 2017).

Tests used:
[1] = tested on: MDA-MB-468, SKBr3, LNCaP, MOLM-13, Kasumi-1, OCI-Ly7 and HuH7 cells; assay: Growth inhibition in a panel of cancer cells; type: cell-based, human; details: growth over 72 h
Procedure: Tested were MDA-MB-468 triple-negative breast cancer cells, SKBr3 HER2+breast cancer cells, LNCaP mAR+prostate cancer cells, MOLM-13 and Kasumi-1 acute myeloid leukemia cells, OCI-Ly7 diffuse large B-cell lymphoma cells and HuH7 hepatocellular carcinoma cells. […] In cancer cells, half growth inhibitory concentrations ([…]) recorded for YK5 were in high agreement with its potency to degrade Hsp90 onco-clients.
Growth Inhibition Assay. Antiproliferative effects of inhibitors were evaluated using the dye Alamar blue. This reagent offers a rapid objective measure of cell viability in cell culture, and it uses the indicator dye resazurin to measure the metabolic capacity of cells, an indicator of cell viability. Briefly, cells were plated on Costar 96-well plates. For attached cells (such as SKBr3, MDA-MB-468, LNCaP, MRCS), 8,000 cells/well were used. For suspension cells (such as MOLM-13, Kasumi-1, OCI-Ly7, PBL), 20,000 cells/well were plated. Cells were allowed to incubate for 24 h at 37° C. before drug treatment. Drugs were added in triplicates at the indicated concentrations, and the plate was incubated for 72 h. Alamar Blue (440 μM) was added, and the plate read 6 h later using the Analyst GT (Fluorescence intensity mode, excitation 530 nm, emission 580 nm, with 560=dichroic mirror). Results were analyzed using the Softmax Pro software. The percentage cell growth inhibition was calculated by comparing fluorescence readings obtained from treated versus control cells, accounting for initial cell population (time zero).

[2] = biological target: T1, Human Hsc70 (Homo sapiens, UniProt P11142); assay: Hsc70 ATPase activity; type: biochemical; details: 100 μM, Hsc70 with co-chaperones, 30° C.
T1 construct: made in house
Procedure: FIG. 6. YK5 inhibits core biochemical functions of Hsp70s and disrupts the Hsp90/Hsp70 interaction. a) Refolding of denatured luciferase by Hsc70 and DJA2 at 30° C. was measured for the indicated times in the presence of YK5 (100 μM) or vehicle (left), or at 60 min in the presence of indicated concentrations of YK5 (right). b) Hsc70 ATPase rates were measured for reactions at 30° C. with the indicated combinations of Hsc70 and co-chaperones in the presence of vehicle (DMSO) or YK5 (100 μM). ADP production was monitored by thin layer chromatography separation of radiolabeled ADP from ATP and phosphorimaging analysis (lower). […] Proteins isolated with anti-Hsp90 and Hsp70s antibodies (IP: Hsp90 or Hsp70), or present in the cell extract (Lysate) were analyzed by WB. […] Proteins were applied to a native gel and analyzed by immunoblotting. […]
Hsc70 ATPase Activity and Luciferase Refolding. Human Hsc70, DJA1/DNAJA1, DJA2/DNAJA2 and Hsp110/Hsp105/HSPH1 were purified and analyzed. […] Samples at time points were terminated with 37.5 mM EDTA and analyzed by thin layer chromatography on polyethylene-imine cellulose (Mallinckrodt Baker) developed in 0.5 M LiCl and 0.5 M formic acid. The ADP produced was determined by image phosphor quantitation and the linear enzymatic rates (Vmax) were calculated by regression analysis. […]

[3] = tested on: Kasumi-1 cells; assay: Apoptosis, acridine orange/ethidium bromide, Kasumi-1; type: cell-based, human; details: 10 μM, 24 h
Procedure: FIG. 13. YK5 has a higher apoptotic effect than Hsp90 inhibitors in select tumors. (a-d) Cells were treated with the indicated concentrations of inhibitors for the times presented. (a,b) Apoptotic cells were quantified by dual acridine orange/ethidium bromide staining as described in Methods. (c,d) Molecular markers of apoptosis (PARP cleavage) were analyzed in cells treated for 24 h with indicated concentrations of inhibitors (c) or for the indicated times with the indicated concentration of inhibitors (d) by western blotting. (e) MDAMB-468 cells were treated with vehicle, TNFα (20 ng/ml), YK5 (1 μM), pretreated with YK5 for 2 h before TNFα or co-treated, and cells were lysed for western blot analysis (left), or cell death was quantified by analyzing the hypodiploid population upon propidium iodine staining (right). […]
To determine whether cell death by YK5 was attributable to apoptosis, cells were treated with YK5 and effects on morphology, as well as on several effectors and mediators of apoptosis were analyzed (FIG. 13). To quantify the number of cells undergoing apoptosis, cells were stained with acridine orange/ethidium bromide (AO/EB) and analyzed under a fluorescence microscope for the percentage of viable, apoptotic (early and late) and necrotic cells. […]
Apoptosis-Acridine Orange/Ethidium Bromide. […] Percentage of apoptotic cells was determined from 200-300 cells counted in each group.

T1 sequence (P11142 whole entry): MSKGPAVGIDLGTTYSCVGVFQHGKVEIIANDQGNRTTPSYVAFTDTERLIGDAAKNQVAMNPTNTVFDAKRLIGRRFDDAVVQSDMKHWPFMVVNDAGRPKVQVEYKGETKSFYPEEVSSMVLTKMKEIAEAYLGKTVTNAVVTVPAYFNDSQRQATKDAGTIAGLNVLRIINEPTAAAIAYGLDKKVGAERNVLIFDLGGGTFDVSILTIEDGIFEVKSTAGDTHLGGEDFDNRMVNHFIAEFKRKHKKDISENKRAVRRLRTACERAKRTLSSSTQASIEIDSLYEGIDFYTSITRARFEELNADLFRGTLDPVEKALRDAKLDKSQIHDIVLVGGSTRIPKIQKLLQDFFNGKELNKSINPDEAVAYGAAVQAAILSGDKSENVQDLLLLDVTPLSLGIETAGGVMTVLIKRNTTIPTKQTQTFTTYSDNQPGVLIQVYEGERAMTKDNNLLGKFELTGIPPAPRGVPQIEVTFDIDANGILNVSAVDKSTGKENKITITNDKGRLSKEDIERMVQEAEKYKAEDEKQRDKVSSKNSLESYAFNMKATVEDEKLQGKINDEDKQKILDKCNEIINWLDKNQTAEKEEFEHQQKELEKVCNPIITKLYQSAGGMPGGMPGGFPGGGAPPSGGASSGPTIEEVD

Structure (SMILES): C=CC(=O)Nc1cc(N)nc(Sc2c(OC)nc(N3CCN(C)CC3)nc2OC)n1 [YK5, N-(6-amino-2-(4,6-dimethoxy-2-(4-methylpiperazin-1-yl)pyrimidin-5-ylthio)pyrimidin-4-yl)acrylamide]
- growth of all tested cancer cells [1]: inhibited the growth of all tested cancer cells
- stimulated ATPase rate of Hsc70 [2]: partially inhibited the stimulated ATPase rate of Hsc70
- cells undergoing apoptosis [3]: 70%
